Measured values taken from patent publication US9562053B2, “Benzo-fused heterocyclic derivatives useful as agonists of GPR120” (Janssen Pharmaceutica NV, priority 2013, dated 2017).

Biological target: T1, Human GPR120 short form (Homo sapiens, UniProt Q5NUL3)
T1 construct: expressed in transfected cells
T1 sequence (Q5NUL3 1-361): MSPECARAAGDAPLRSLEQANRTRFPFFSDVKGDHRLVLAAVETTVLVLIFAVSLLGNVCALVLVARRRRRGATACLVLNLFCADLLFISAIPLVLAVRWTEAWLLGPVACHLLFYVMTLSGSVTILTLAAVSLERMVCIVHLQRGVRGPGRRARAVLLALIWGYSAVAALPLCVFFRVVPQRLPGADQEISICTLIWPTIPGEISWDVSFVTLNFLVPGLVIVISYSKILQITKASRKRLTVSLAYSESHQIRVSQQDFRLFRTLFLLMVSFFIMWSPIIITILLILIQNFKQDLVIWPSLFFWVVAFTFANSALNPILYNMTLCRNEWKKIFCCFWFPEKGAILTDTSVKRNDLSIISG
Test: Human GPR120 in Calcium Flux Assay, Procedure Calcium A (2500 cells/well)
Assay type: cell-based
From the text: This in vitro assay serves to assess test compound agonist activity against the short splice variant (SVS with Accession number NM_001195755.1 confirmed by sequencing data) of the GPR120 receptor. The Human Short splice variant #2 (NM_001195755.1) is missing an in-frame coding exon compared to variant 1 (the Human Long splice variant NM_181745.3), resulting in a shorter isoform (GPR120-S) lacking a 16 aa protein segment compared to isoform GPR120-L. The assay platform utilizes HEK-293 cells stably transfected to express the Human GPR120 short form. These cells are first loaded with the Ca^+2 sensitive dye, Fluo-4 NW. Upon stimulation, intracellular released Ca^+2 can bind to the dye and alter its fluorescence intensity. This increase in fluorescence signal, and thus the flux in intracellular [Ca^+2], is detected and quantitated by fluorescence imaging using a FLIPR reader. The effect of the agonist is measured as a function of concentration and used to calculate an EC50 based upon a response curve.
In this procedure 2500 cells/well were employed.
A Human GPR120 clone (Genbank accession number NM_001195755.1) was placed into the pcDNA3.1 mammalian expression vector carrying the neomycin resistance gene. A stable mammalian cell was generated by placing the above clone into a HEK293 background. Clonal cells responding to long chain fatty acids had expression levels of GPR120 confirmed by RT-qPCR. Human HEK-GPR120 cells were cultured in Dulbecco's Modified Eagle's Medium (DMEM)/F12 medium supplemented with 10% fetal bovine serum (FBS), 1% L-Glutamine and 1% penicillin/streptomycin and 0.5 mg/ml G-418. Cells were split 2 times a week to keep the cells in the log-phase growth.
In preparation for the assay, HEK cells stably transfected with Human GPR120 (2.5K cells per well in 25 uL growth medium) were seeded into 384-well plates and then incubated overnight (37° C., 5% CO2). The next day, the media was changed to 20 μl assay buffer and the cell starved for 1 h at 37° C. The dye loading solution (2× dye) was prepared using 10 ml assay buffer, 100 μl of 250 mM probenecid, 1 bottle of Component A, and 20 μl of dye in DMSO. Twenty μl of the 2× dye loading buffer was then added to each well. The plates were incubated at 37° C. for 30 min, then at room temperature for an additional 15 minutes, before performing the assay on FLIPR.
Test compounds were prepared in assay buffer (2 μl of test compound+198 μl assay buffer, final DMSO in assay plate is 0.2%) at the desired concentration, more particularly at 100 μM, 50 μM, 25 μM, 12.5 μM, 6.25 μM, 3.125 μM, 1.562 μM, 0.781 μM, 0.391 μM, 0.195 μM, 0.098 μM, 0.049 μM, 0.024 μM and 0.012 μM.
The assay was performed on a FLIPR plate reader using the following parameters. Baseline was read for 10 seconds at 1 sec intervals. The program was set to transfer 10 μL of ligand from compound plate to cell plate after baseline reading. Aspiration was executed at: 10 μl/sec speed, 4.6 μl height; Dispensing was executed at: 30 μl/sec speed, 45 μl height. After compound addition, each well was read for 300 sec, with measurements collected at 1 sec intervals.
The kinetic data from the FLIPR was based upon a 5 minute window for data collection. The fluorescence of each sample well was used for individual calculations of a normalized RFU value, which was defined as maximum response minus the minimum response. The normalized fluorescence reading (RFU) was calculated as follows: RFU=Fmax−Fmin
The data were fitted to a sigmoidal dose-response curve with a variable Hill slope (<2) using nonlinear regression with GraphPad Prism 5.0 to calculate the EC50 values. The Fitting Equation was: Y=Bottom+(Top−Bottom)/(1+10^((LogEC50−X)*HillSlope)), where X is the log of the concentration and Y is the response.

| EC50 [nM] | Structure (SMILES) |
| --- | --- |
| 2750 | Cc1c(CCC(=O)O)ccc(OCc2cc(F)cc3cc(CCC(C)C)oc23)c1C [Compound 9, 3-(4-{[5-Fluoro-2-(3-methylbutyl)-1-benzofuran-7-yl]methoxy}-2,3-dimethylphenyl)propanoic acid] |
| 424 | COCCc1cc2cc(F)cc(COc3ccc(CCC(=O)O)c(C)c3C)c2o1 [Compound 10, 3-(4-{[5-Fluoro-2-(2-methoxyethyl)-1-benzofuran-7-yl]methoxy}-2,3-dimethylphenyl)propanoic acid] |
| 1320 | Cc1c(CCC(=O)O)ccc(OCc2cc(F)cc3cc(CO)oc23)c1C [Compound 14, 3-(4-{[5-Fluoro-2-(hydroxymethyl)-1-benzofuran-7-yl]methoxy}-2,3-dimethylphenyl)propanoic acid] |
| 4750 | Cc1c(CCC(=O)O)ccc(OCc2cc(F)cc3cc(CCO)oc23)c1C [Compound 15, 3-(4-{[5-Fluoro-2-(2-hydroxyethyl)-1-benzofuran-7-yl]methoxy}-2,3-dimethylphenyl)propanoic acid] |
| 1680 | Cc1c(CCC(=O)O)ccc(OCc2cc(F)cc3cc(CC4CCCC4)oc23)c1C [Compound 19, 3-(4-{[2-(Cyclopentylmethyl)-5-fluoro-1-benzofuran-7-yl]methoxy}-2,3-dimethylphenyl)propanoic acid] |
| 5290 | Cc1c(CCC(=O)O)ccc(OCc2cc(F)cc3cc(Cc4ccccc4)oc23)c1C [Compound 20, 3-{4-[(2-Benzyl-5-fluoro-1-benzofuran-7-yl)methoxy]-2,3-dimethylphenyl}propanoic acid] |
| 759 | CCc1cc2cc3c(c(COc4ccc(CCC(=O)O)c(C)c4C)c2o1)CC(C)(C)O3 [Compound 30, 3-{4-[(6-Ethyl-2,2-dimethyl-2,3-dihydrobenzo[1,2-b:4,5-b′]difuran-4-yl)methoxy]-2,3-dimethylphenyl}propanoic acid] |
| 1110 | CCc1cc2cc(F)cc(COc3cc(C)c(CCC(=O)O)cn3)c2o1 [Compound 33, 3-{6-[(2-Ethyl-5-fluoro-1-benzofuran-7-yl)methoxy]-4-methylpyridin-3-yl}propanoic acid] |
| 1020 | CCCc1cc2cc(Cl)cc(COc3cc(C)c(CCC(=O)O)cn3)c2o1 [Compound 34, 3-{6-[(5-Chloro-2-propyl-1-benzofuran-7-yl)methoxy]-4-methylpyridin-3-yl}propanoic acid] |
| 28 | C#Cc1cc(COc2ccc(CCC(=O)O)c(C)c2C)c2oc(CCC)cc2c1 [Compound 38, 3-{4-[(5-Ethynyl-2-propyl-1-benzofuran-7-yl)methoxy]-2,3-dimethylphenyl}propanoic acid] |
| 392 | CCc1cc2cc(OC(F)(F)F)cc(COc3cc(CCC(C)C)c(CCC(=O)O)cc3F)c2o1 [Compound 51, 3-[4-{[2-Ethyl-5-(trifluoromethoxy)-1-benzofuran-7-yl]methoxy}-5-fluoro-2-(3-methylbutyl)phenyl]propanoic acid] |
| 673 | CCc1cc2cc(OC(F)(F)F)cc(COc3cc(CC(C)C)c(CCC(=O)O)cc3F)c2o1 [Compound 53, 3-[4-{[2-Ethyl-5-(trifluoromethoxy)-1-benzofuran-7-yl]methoxy}-5-fluoro-2-(2-methylpropyl)phenyl]propanoic acid] |
| 417 | Cc1cc2cc(Cl)cc(COc3c(F)cc(CCC(=O)O)cc3F)c2s1 [Compound 92, 3-{4-[(5-Chloro-2-methyl-1-benzothiophen-7-yl)methoxy]-3,5-difluorophenyl}propanoic acid] |
| 274 | Cc1c(CCC(=O)O)ccc(OCc2cc(OC(F)(F)F)cc3cc(CCO)oc23)c1C [Compound 94, 3-(4-{[2-(2-Hydroxyethyl)-5-(trifluoromethoxy)-1-benzofuran-7-yl]methoxy}-2,3-dimethylphenyl)propanoic acid] |
| 134 | Cc1nc2c(COc3ccc(CCC(=O)O)c(C)c3C)cc(Cl)cc2o1 [Compound 95, 3-{4-[(6-Chloro-2-methyl-1,3-benzoxazol-4-yl)methoxy]-2,3-dimethylphenyl}propanoic acid] |
| > 5000 | Cc1cc2cc(C#CCS(C)(=O)=O)cc(COc3ccc(CCC(=O)O)c(C)c3C)c2o1 [Compound 99, 3-[2,3-Dimethyl-4-({2-methyl-5-[3-(methylsulfonyl)prop-1-yn-1-yl]-1-benzofuran-7-yl}methoxy)phenyl]propanoic acid] |
| > 5000 | Cc1cc2cc(CCCS(C)(=O)=O)cc(COc3ccc(CCC(=O)O)c(C)c3C)c2o1 [Compound 100, 3-[2,3-Dimethyl-4-({2-methyl-5-[3-(methylsulfonyl)propyl]-1-benzofuran-7-yl}methoxy)phenyl]propanoic acid] |
| 3200 | Cc1cc2c(COc3ccc(CCC(=O)O)c(C)c3C)cc(Cl)cc2s1 [Compound 101, 3-{4-[(6-Chloro-2-methyl-1-benzothiophen-4-yl)methoxy]-2,3-dimethylphenyl}propanoic acid] |
| > 5000 | Cc1cc2c(COc3c(F)cc(CCC(=O)O)cc3F)cc(Cl)cc2s1 [Compound 102, 3-{4-[(6-Chloro-2-methyl-1-benzothiophen-4-yl)methoxy]-3,5-difluorophenyl}propanoic acid] |
| 3000 | Cc1cc2c(COc3c(F)cc(CCCO)cc3F)cc(Cl)cc2s1 [Compound 103, 3-{4-[(6-Chloro-2-methyl-1-benzothiophen-4-yl)methoxy]-3,5-difluorophenyl}propan-1-ol] |
| 1540 | Cc1oc2c(COc3c(Br)cc(CCC(=O)O)c(C)c3C)cc(OC(F)(F)F)cc2c1Br [Compound 120, 3-(5-Bromo-4-{[3-bromo-2-methyl-5-(trifluoromethoxy)-1-benzofuran-7-yl]methoxy}-2,3-dimethylphenyl)propanoic acid] |
| 1410 | CCc1cc2cc(C#N)cc(COc3ccc(CCC(=O)O)c(C)c3C)c2o1 [Compound 123, 3-(4-((5-cyano-2-ethylbenzofuran-7-yl)methoxy)-2,3-dimethylphenyl)propanoic acid] |
